Laboratory results reported in patent US10441681B2, “Materials and methods for nerve grafting” (University of Florida Research Foundation, Inc., priority 2001, dated 2019).

What was measured:
rat sciatic nerve [1] = assay: Axonal regeneration after sciatic nerve transection (neurotmesis) and neurorrhaphic repair; assay type: in vivo
Protocol: All surgical procedures were performed according to Institutional Animal Care and Use Committee (IACUC) approved protocols. Young adult SPRAGUE DAWLEY rats (HARLAN Indianapolis, Ind.) were deeply anesthetized with xylazine (15 mg/kg, i.m.) followed by ketamine-HCl (110 mg/kg, i.p.). Six animals received bilateral nerve crush injuries. Sciatic nerves were exposed and then crushed with firm pressure for thirty seconds with a DUMONT #5 forceps at a site 4 mm distal to the tendon of the internal obdurator. The crush site was marked with an epineurial suture. In a separate set of experiments, eight rats received bilateral sciatic nerve transection injuries using serrated scissors. The proximal and distal stumps were coated by epineurial neurorrhaphy using 9-0 ETHILON sutures. Fibrin glue (fibrinogen and thrombin) was then applied to stabilize the union. In both injury models, the right sciatic nerves were injected 2-mm distal to the injury with chondroitinase ABC (1 U in 2 μl) (high-purity, protease-free; SIGMA CHEMICAL CO., St. Louis, […].). Left sciatic nerves (with the same injury as the right side) were injected with vehicle alone (0.1% bovine serum albumin in PBS). Muscle incisions were sutured and the skin closed with metal clips. After recovery from the anesthetic, animals were returned to standard housing. Two days (for crush injury) and four days (for transection injury) after surgery, nerves were removed under anesthesia and fixed as described below. One of the eight animals receiving nerve transection and repair was excluded because loss of continuity in one nerve occurred during convalescence.
The hypothesis that chondroitinase treatment improves axonal growth through the site of nerve coaptation was tested. Bilateral neurotmesis was achieved by a scissor cut of the sciatic nerves which were then repaired by epineurial suture and fibrin glue. One nerve was injected with chondroitinase ABC and the contralateral nerve received vehicle alone. Because of the latency of regeneration after nerve transection, axonal growth across the coaptation was examined four days after injury. In control nerves, the ingress of axons occurred mainly in patches and was limited to discrete subsections of the distal nerve; otherwise only a few axons were found scattered throughout the remaining nerve cross-section, as shown in FIG. 14A. The number of axons extending farther into the distal (after 4 days) rapidly diminished and approached zero within 3 mm from the coaptation. In contrast, axon ingress into chondroitinase-treated nerves was more robust and widespread throughout the entire nerve cross-section. In 7/7 animals, the number of axons that entered the distal nerve was greater in the chondroitinase-treated nerve than in the control nerve. […]

rat sciatic nerve [2] = assay: Axonal regeneration into acellular interpositional nerve grafts (GAP-43 profiles); assay type: in vivo
From the text: Adult (180-200 g) female SPRAGUE DAWLEY rats (HARLAN, Indianapolis, Ind.) were used as nerve donors and recipient hosts. Donor rats were anesthetized with halothane and decapitated. Sciatic nerves were exposed through a gluteal muscle-splitting incision and isolated free of underlying fascia. A 15-mm nerve segment was excised rostral to the bifurcation into common peroneal and tibial nerves. The segments were rinsed with cold sterile Ringer's solution, stabilized by pinning the ends to a thin plastic support, and transferred to a cryogenic vial. The vials were submerged in liquid nitrogen for 2 minutes and then transferred to a 37° C. water bath for 2 minutes. This freeze/thaw cycle was repeated, yielding acellular nerve grafts that were then stored in liquid nitrogen. On the day before grafting, the nerve grafts were warmed to room temperature and incubated in 100 μl phosphate buffered saline pH 7.4 (PBS) containing 2 units/ml chondroitinase ABC (SIGMA, St. Louis, Mo.) or in PBS (vehicle) only for 16 hours at 37° C. The grafts were rinsed twice with Ringer's and kept on ice prior to use. The chondroitinase ABC preparation was highly purified and stated by the manufacturer to be essentially free of protease activity.
Twelve rats received bilateral acellular nerve grafts, one chondroitinase-treated and one vehicle-treated graft. Host rats were deeply anesthetized using xylazine (15 mg/kg, i.m.) and ketamine (110 mg/kg, i.p.). The sciatic nerve was exposed and supported by a plastic insert placed between the nerve and underlying tissue. The region of nerve halfway between the sciatic notch and bifurcation was first coated with fibrin glue. Using serrated scissors, a 2.5-mm segment of host nerve was excised and replaced with a freshly trimmed 10-mm acellular nerve graft. The graft was coapted to the host nerve stumps by epineurial neurorrhaphy using one 9-0 ETHILON suture at each end. […] The muscle was closed with 4-0 sutures and the skin with wound clips. After recovery from the anesthetic, animals were returned to standard housing.
Nine rats were terminated at 8 days and four at 4 days after grafting. Animals were deeply anesthetized and decapitated. The graft and 3 mm of proximal and distal host nerve were removed, immersed in 4% paraformaldehyde in 0.1 M phosphate buffer (pH 7.4) overnight at 4° C. The specimens were equilibrated with PBS and immersed in 30% sucrose/phosphate buffer for 2 days at 4° C. […]
The main grafts were sectioned serially on the transverse plane in recorded measure to assess the extent of axonal growth by microscopy. […] GAP-43-positive axon profiles were scored using IMAGE-PRO PLUS software (MEDIA CYBERNETICS, Silver Springs, Md.). […]

## chondroitinase ABC
Rat sciatic nerve [1]; GAP-43/laminin double-immunolabeling
  propensity of axons to regrow within basal laminae of the distal nerve: unaltered
Rat sciatic nerve [1]; four days after injury
  animals in which the number of axons entering the distal nerve was greater than in the control nerve: 7/7
Rat sciatic nerve [1]; four days after transection and repair, 1 U in 2 μl injected, n=7
  score of axons immediately distal to the coaptation vs control nerves: two-fold greater
Rat sciatic nerve [1]; score of axons immediately distal to the coaptation, four days
  animals with increases greater than 3.5-fold: 3/7
Rat sciatic nerve [2]; 4-day grafts, 0.3 mm from the host-graft interface, 3 animals
  axonal penetration vs vehicle-treated grafts: five-fold greater
Rat sciatic nerve [2]; 8-day acellular syngrafts, en bloc treated, n=9
  average number of axons (GAP-43-immunopositive profiles) entering grafts vs control grafts: more than three-fold greater
Rat sciatic nerve [2]; 8-day grafts
  number of axons at the distal ends of grafts vs control: a similar number of axons
Rat sciatic nerve [2]; 8-day grafts, GAP-43/laminin double label
  propensity of axons to grow within basal laminae: unaltered
